Like-named read-outs stand apart in the source and are kept apart here.
Target: T1, low-Km cAMP phosphodiesterase
T1 construct: gene Pde3b; not purified, mixture of isoenzymes
Test: [3H]cAMP hydrolysis, paper chromatography
Type: biochemical, Rattus norvegicus
Conditions: 0.25 µM cAMP, 100 mM Tris-HCl pH 7.5, 4 mM MgCl2, 30 °C, 5 min, crude fraction, read-out: I50

Structure (SMILES) | IC50 | IC50 (competitive)
Cn1c(=O)c2[nH]cnc2n(C)c1=O [theophylline] | 350 µM | –
CN(C)N=Nc1[nH]cnc1C(N)=O [DTIC, 5-(3,3-dimethyl-1-triazeno)imidazole-4-carboxamide] | – | 790 µM
